Holding throughout (test): AK assay 384-well format, Prestwick library screening
For experiment [1], the system named is E. faecium. The class given is cell-based, Enterococcus faecium. As to conditions: 50 μM final drug concentration; for fold induction at 50 µM: Enterococcus faecium, 3 h; for AK-based Prestwick Library Screening Results, E. faecium (fold increase in extracellular AK activity): planktonic.
Experiment [2] deals with S. aureus strain USA300-0114. The class given is cell-based, Staphylococcus aureus. As to conditions: 50 μM final drug concentration; for fold induction at 50 µM: Staphylococcus aureus, USA300, 3 h; for AK-based Prestwick Library Screening Results, S. aureus (fold increase in extracellular AK activity): planktonic.
Experiment [3] concerns K. pneumoniae. The format is cell-based, Klebsiella pneumoniae. As to conditions: 50 μM final drug concentration; for fold induction at 50 µM: Klebsiella pneumoniae, 3 h; for AK-based Prestwick Library Screening Results, K. pneumoniae (fold increase in extracellular AK activity): planktonic.
Experiment [4] concerns A. baumannii strain 98-37-09. The format is cell-based, Acinetobacter baumannii. As to conditions: 50 μM final drug concentration; for fold induction at 50 µM: Acinetobacter baumannii, 983709, 3 h; for AK-based Prestwick Library Screening Results, A. baumannii (fold increase in extracellular AK activity): planktonic.
The test system of experiment [5] is P. aeruginosa. The format is cell-based, Pseudomonas aeruginosa. As to conditions: 50 μM final drug concentration; for fold induction at 50 µM: Pseudomonas aeruginosa, 3 h; for AK-based Prestwick Library Screening Results, P. aeruginosa (fold increase in extracellular AK activity): planktonic.
Experiment [6] concerns E. cloacae. The class given is cell-based, Enterobacter cloacae. As to conditions: 50 μM final drug concentration; for fold induction at 50 µM: Enterobacter cloacae, 3 h; for AK-based Prestwick Library Screening Results, E. cloacae (fold increase in extracellular AK activity): planktonic.
The test system of experiment [7] is E. coli. The format is cell-based, Escherichia coli. As to conditions: 50 μM final drug concentration; for fold induction at 50 µM: Escherichia coli, 3 h; for AK-based Prestwick Library Screening Results, E. coli (fold increase in extracellular AK activity): planktonic.
Setting [8] is: 384-well format, cutoff for positive-scoring molecules 3-fold increase, read-out: AK-based Prestwick Library Screening Results, E. coli (increase in extracellular AK activity).
The mark [9] stands for this setting: cutoff for positive-scoring molecules 3-fold increase.
Setting [10] is: planktonic E. faecium, 384-well, cutoff for positive-scoring molecules 3-fold increase, read-out: AK-based Prestwick Library Screening Results: E. faecium (increase in extracellular AK activity).
Setting [11] is: planktonic S. aureus, 384-well, cutoff for positive-scoring molecules 3-fold increase, read-out: AK-based Prestwick Library Screening Results: S. aureus (increase in extracellular AK activity).
Setting [12] is: planktonic K. pneumoniae, 384-well, cutoff for positive-scoring molecules 3-fold increase, read-out: AK-based Prestwick Library Screening Results: K. pneumoniae (increase in extracellular AK activity).
[13] abbreviates: planktonic A. baumannii, 384-well, cutoff for positive-scoring molecules 3-fold increase, read-out: AK-based Prestwick Library Screening Results: A. baumannii (increase in extracellular AK activity).
Setting [14] is: planktonic P. aeruginosa, 384-well, cutoff for positive-scoring molecules 3-fold increase, read-out: AK-based Prestwick Library Screening Results: P. aeruginosa (increase in extracellular AK activity).
Where [15] appears, read: planktonic E. cloacae, 384-well, cutoff for positive-scoring molecules 3-fold increase, read-out: AK-based Prestwick Library Screening Results: E. cloacae (increase in extracellular AK activity).
The mark [16] stands for this setting: 384-well format, cutoff for positive-scoring molecules 3-fold increase, read-out: AK-based Prestwick Library Screening Results, E. faecium (increase in extracellular AK activity).
Setting [17] is: 384-well format, cutoff for positive-scoring molecules 3-fold increase, read-out: AK-based Prestwick Library Screening Results, S. aureus (increase in extracellular AK activity).
[18] abbreviates: 384-well format, cutoff for positive-scoring molecules 3-fold increase, read-out: AK-based Prestwick Library Screening Results, K. pneumoniae (increase in extracellular AK activity).
The mark [19] stands for this setting: 384-well format, cutoff for positive-scoring molecules 3-fold increase, read-out: AK-based Prestwick Library Screening Results, A. baumannii (increase in extracellular AK activity).
Where [20] appears, read: 384-well format, cutoff for positive-scoring molecules 3-fold increase, read-out: AK-based Prestwick Library Screening Results, P. aeruginosa (increase in extracellular AK activity).
Where [21] appears, read: 384-well format, cutoff for positive-scoring molecules 3-fold increase, read-out: AK-based Prestwick Library Screening Results, E. cloacae (increase in extracellular AK activity).
[22] abbreviates: 384-well format, cutoff for positive-scoring molecules 3-fold increase.

The source of these data is patent US10004701B2, “Methods and compositions for treating infection” (UNIVERSITY OF ROCHESTER, priority 2012, dated 2018).

Counter-ions that a name gives are not always drawn. Like-named read-outs stand apart in the source and are kept apart here.

Regarding `C[C@@H](O)[C@H]1C(=O)N2C(C(=O)O)=C(SCCN=CN)C[C@H]12` [Imipenem], the fold induction at 50 µM was 0.9 in experiment [1] (planktonic E. faecium, cutoff for positive-scoring molecules 3-fold increase, read-out: AK-based Prestwick Library Screening Results, E. faecium (increase in extracellular AK activity)); 2.5 in experiment [2] (planktonic S. aureus, cutoff for positive-scoring molecules 3-fold increase, read-out: AK-based Prestwick Library Screening Results, S. aureus (increase in extracellular AK activity)); 1.7 in experiment [3] (planktonic K. pneumoniae, cutoff for positive-scoring molecules 3-fold increase, read-out: AK-based Prestwick Library Screening Results, K. pneumoniae (increase in extracellular AK activity)); 1.2 in experiment [4] (planktonic A. baumannii, cutoff for positive-scoring molecules 3-fold increase, read-out: AK-based Prestwick Library Screening Results, A. baumannii (increase in extracellular AK activity)); 1 in experiment [5] (planktonic P. aeruginosa, cutoff for positive-scoring molecules 3-fold increase, read-out: AK-based Prestwick Library Screening Results, P. aeruginosa (increase in extracellular AK activity)); 2.4 in experiment [6] (planktonic E. cloacae, cutoff for positive-scoring molecules 3-fold increase, read-out: AK-based Prestwick Library Screening Results, E. cloacae (increase in extracellular AK activity)). Further, in experiment [7] (planktonic E. coli, cutoff for positive-scoring molecules 3-fold increase, read-out: AK-based Prestwick Library Screening Results, E. coli (increase in extracellular AK activity)), the fold induction at 50 µM stood at 12.1.
As for `O=C(O)Cc1cc(I)c(Oc2ccc(O)c(I)c2)c(I)c1`, in experiment [1] (planktonic E. faecium, 384-well, cutoff for positive-scoring molecules 3-fold increase), the “AK-based Prestwick Library Screening Results: E. faecium (increase in extracellular AK activity)” value is reported as 1.3. Also, the “AK-based Prestwick Library Screening Results: S. aureus (increase in extracellular AK activity)” value in experiment [2] (planktonic S. aureus, 384-well, cutoff for positive-scoring molecules 3-fold increase) stood at 0.4. The “AK-based Prestwick Library Screening Results: K. pneumoniae (increase in extracellular AK activity)” value in experiment [3] (planktonic K. pneumoniae, 384-well, cutoff for positive-scoring molecules 3-fold increase) is on record as 1.0. The “AK-based Prestwick Library Screening Results: A. baumannii (increase in extracellular AK activity)” value in experiment [4] (planktonic A. baumannii, 384-well, cutoff for positive-scoring molecules 3-fold increase) was found to be 1.1. The “AK-based Prestwick Library Screening Results: P. aeruginosa (increase in extracellular AK activity)” value in experiment [5] (planktonic P. aeruginosa, 384-well, cutoff for positive-scoring molecules 3-fold increase) stood at 1.2. Moreover, the “AK-based Prestwick Library Screening Results: E. cloacae (increase in extracellular AK activity)” value in experiment [6] (planktonic E. cloacae, 384-well, cutoff for positive-scoring molecules 3-fold increase) is on record as 1.5. Besides, the “AK-based Prestwick Library Screening Results: E. coli (increase in extracellular AK activity)” value in experiment [7] (planktonic E. coli, 384-well, cutoff for positive-scoring molecules 3-fold increase) was 1.1.
Regarding `Cc1cc(=O)n(-c2ccccc2)n1C` [Antipyrine], the fold induction at 50 µM in experiment [1] (384-well format, […], read-out: AK-based Prestwick Library Screening Results, E. faecium (increase in extracellular AK activity)) is 1; in experiment [2] (384-well format, […], read-out: AK-based Prestwick Library Screening Results, S. aureus (increase in extracellular AK activity)) it was 0.7; in experiment [3] (384-well format, […], read-out: AK-based Prestwick Library Screening Results, K. pneumoniae (increase in extracellular AK activity)), 0.7; in experiment [4] (384-well format, […], read-out: AK-based Prestwick Library Screening Results, A. baumannii (increase in extracellular AK activity)), 1; in experiment [5] (384-well format, […], read-out: AK-based Prestwick Library Screening Results, P. aeruginosa (increase in extracellular AK activity)), 0.8; in experiment [6] (384-well format, […], read-out: AK-based Prestwick Library Screening Results, E. cloacae (increase in extracellular AK activity)) it was 1. Also, the fold induction at 50 µM in experiment [7] (setting [8]) is 0.9.
For the molecule `CC(C)NC[C@@H](O)c1ccc(O)c(O)c1.O=C(O)C(O)C(O)C(=O)O` [(+)-Isoproterenol (+)-bitartrate salt], the “AK-based Prestwick Library Screening Results, E. faecium (fold increase in extracellular AK activity)” value in experiment [1] (setting [9]) is reported as 0.9. In addition, in experiment [2] (setting [9]), the “AK-based Prestwick Library Screening Results, S. aureus (fold increase in extracellular AK activity)” value is given as 0.8. For the same molecule, the “AK-based Prestwick Library Screening Results, K. pneumoniae (fold increase in extracellular AK activity)” value in experiment [3] (setting [9]) came to 1.0. Besides, in experiment [4] (setting [9]), the “AK-based Prestwick Library Screening Results, A. baumannii (fold increase in extracellular AK activity)” value is 0.8. Moreover, in experiment [5] (setting [9]), the “AK-based Prestwick Library Screening Results, P. aeruginosa (fold increase in extracellular AK activity)” value amounted to 0.8. In addition, the “AK-based Prestwick Library Screening Results, E. cloacae (fold increase in extracellular AK activity)” value in experiment [6] (setting [9]) was found to be 1.4. For the same molecule, in experiment [7] (setting [9]), the “AK-based Prestwick Library Screening Results, E. coli (fold increase in extracellular AK activity)” value was 0.9.
As to Isoetharine mesylate salt, the “AK-based Prestwick Library Screening Results, E. faecium (fold increase in extracellular AK activity)” value in experiment [1] ([…]) came out at 0.9. In addition, in experiment [2] ([…]), the “AK-based Prestwick Library Screening Results, S. aureus (fold increase in extracellular AK activity)” value is 0.6. Moreover, the “AK-based Prestwick Library Screening Results, K. pneumoniae (fold increase in extracellular AK activity)” value in experiment [3] ([…]) is recorded as 1.4. The “AK-based Prestwick Library Screening Results, A. baumannii (fold increase in extracellular AK activity)” value in experiment [4] ([…]) amounted to 0.8. Also, the “AK-based Prestwick Library Screening Results, P. aeruginosa (fold increase in extracellular AK activity)” value in experiment [5] ([…]) is reported as 0.6. The “AK-based Prestwick Library Screening Results, E. cloacae (fold increase in extracellular AK activity)” value in experiment [6] ([…]) worked out at 0.9. Also, the “AK-based Prestwick Library Screening Results, E. coli (fold increase in extracellular AK activity)” value in experiment [7] ([…]) amounted to 0.9.
For `CCCN1C[C@H](CSC)C[C@@H]2c3cccc4[nH]cc(c34)C[C@H]21` [Pergolide mesylate], the fold induction at 50 µM in experiment [1] (setting [10]) was found to be 1; in experiment [2] (setting [11]), 1; in experiment [3] (setting [12]) it was 0.8; in experiment [4] (setting [13]), 1.3; in experiment [5] (setting [14]) it was 1; in experiment [6] (setting [15]), 1.4. Further, the fold induction at 50 µM in experiment [7] (planktonic E. coli, 384-well, cutoff for positive-scoring molecules 3-fold increase, read-out: AK-based Prestwick Library Screening Results: E. coli (increase in extracellular AK activity)) amounted to 1.3.
`CNCCC=C1c2ccccc2CCc2ccccc21` [Nortriptyline hydrochloride]: the fold induction at 50 µM in experiment [1] (setting [16]) worked out at 0.9; in experiment [2] (setting [17]), 1; in experiment [3] (setting [18]), 0.7; in experiment [4] (setting [19]) it was 0.9; in experiment [5] (setting [20]), 0.8; in experiment [6] (setting [21]), 0.9. Further, in experiment [7] (setting [8]), the fold induction at 50 µM worked out at 0.9.
For `CC(=O)Oc1cc(C(C)C)c(OCCN(C)C)cc1C.Cl` [Moxisylyte hydrochoride], the “AK-based Prestwick Library Screening Results, E. faecium (increase in extracellular AK activity)” value in experiment [1] (setting [22]) is given as 0.9. For the same molecule, in experiment [2] (setting [22]), the “AK-based Prestwick Library Screening Results, S. aureus (increase in extracellular AK activity)” value was 1.1. For the same molecule, in experiment [3] (setting [22]), the “AK-based Prestwick Library Screening Results, K. pneumoniae (increase in extracellular AK activity)” value came to 1.0. In experiment [4] (setting [22]), the “AK-based Prestwick Library Screening Results, A. baumannii (increase in extracellular AK activity)” value is recorded as 1.1. Also, the “AK-based Prestwick Library Screening Results, P. aeruginosa (increase in extracellular AK activity)” value in experiment [5] (setting [22]) came out at 1.1. The “AK-based Prestwick Library Screening Results, E. cloacae (increase in extracellular AK activity)” value in experiment [6] (setting [22]) was determined as 1.6. Moreover, in experiment [7] (setting [22]), the “AK-based Prestwick Library Screening Results, E. coli (increase in extracellular AK activity)” value is 1.2.
As to `Cc1ccccc1OCC(O)CO` (stereo not shown) [Mephenesin], the fold induction at 50 µM was 1 in experiment [1] (setting [16]); 0.8 in experiment [2] (setting [17]); 0.7 in experiment [3] (setting [18]); 0.8 in experiment [4] (setting [19]); 0.6 in experiment [5] (setting [20]); 0.8 in experiment [6] (setting [21]). For the same molecule, in experiment [7] (setting [8]), the fold induction at 50 µM amounted to 0.7.
With `CC(=O)O[C@H]1C(=O)[C@@]2(C)[C@H]([C@H](OC(=O)c3ccccc3)[C@]3(O)C[C@H](OC(=O)[C@H](O)[C@@H](NC(=O)c4ccccc4)c4ccccc4)C(C)=C1C3(C)C)[C@]1(OC(C)=O)CO[C@@H]1C[C@@H]2O` [Paclitaxel], the fold induction at 50 µM was determined as 1 in experiment [1] (setting [10]); 1 in experiment [2] (setting [11]); 1 in experiment [3] (setting [12]); 1.3 in experiment [4] (setting [13]); 1 in experiment [5] (setting [14]); 1.6 in experiment [6] (setting [15]). Further, the fold induction at 50 µM in experiment [7] (planktonic E. coli, 384-well, […], read-out: AK-based Prestwick Library Screening Results: E. coli (increase in extracellular AK activity)) is 1.1.
